Laboratory results: PMC9598407, “Identification of Staphylococcus aureus Penicillin Binding Protein 4 (PBP4) Inhibitors” (Antibiotics, 2022)
Entries after “also recorded” stand apart in the source; their conditions may differ.

Legend:
[1] = system: S. aureus strain CRB∆pbp4; assay: Fractional inhibitory concentration checkerboard, ceftobiprole + putative PBP4 inhibitor, strain CRB∆pbp4; type: cell-based, Staphylococcus aureus
[2] = system: pbp4 expression in S. aureus USA300; assay: qRT-PCR of pbp4 transcript titers, USA300; type: cell-based, Staphylococcus aureus; conditions: 25 µM compound, 3 h
Excerpt: (§1) Given that each of the six compounds appeared to affect PBP4-mediated antibiotic resistance, we considered that their effects may be modulated by either inhibiting the protein’s function or by reducing pbp4 expression, the latter of which may be readily overcome by regulatory mutations that could in-turn easily result in resistance. Thus, we sought to prioritize compounds that may affect the protein’s function and de-prioritize compounds that affect the protein’s expression. Quantitative real-time reverse transcriptase PCR (qRT-PCR) was used to measure the pbp4 transcript titers within USA300 and CRB cells following compound treatment (Figure 2). […] We chose to focus the remainder of our studies on 9314848 (Figure 3A) because the molecule appeared the more druggable and chemically tractable for downstream structure activity relationship studies.
(§2) PBP4 transcript titers of bacterial cells exposed to putative PBP4 inhibitors were measured using real time quantitative PCR (RT-qPCR), as previously described. […] Bacterial RNA was amplified and measured using PerfeCTa SYBR Green FastMix and qScript cDNA SuperMix kits following the manufacturer’s recommendations (QuantaBio, Beverly, MA, USA). […]

[3] = system: pbp4 expression in S. aureus CRB; assay: qRT-PCR of pbp4 transcript titers, CRB; type: cell-based, Staphylococcus aureus; conditions: 25 µM compound, 3 h
Excerpt: as §1, §2

[4] = molecular target: recombinant Bacillus subtilis PBP4 (Bacillus subtilis, UniProt P40750); assay: BOCILLIN FL fluorescence polarization displacement assay, PBP4; type: binding
recombinant Bacillus subtilis PBP4, sequence (P40750 22-624): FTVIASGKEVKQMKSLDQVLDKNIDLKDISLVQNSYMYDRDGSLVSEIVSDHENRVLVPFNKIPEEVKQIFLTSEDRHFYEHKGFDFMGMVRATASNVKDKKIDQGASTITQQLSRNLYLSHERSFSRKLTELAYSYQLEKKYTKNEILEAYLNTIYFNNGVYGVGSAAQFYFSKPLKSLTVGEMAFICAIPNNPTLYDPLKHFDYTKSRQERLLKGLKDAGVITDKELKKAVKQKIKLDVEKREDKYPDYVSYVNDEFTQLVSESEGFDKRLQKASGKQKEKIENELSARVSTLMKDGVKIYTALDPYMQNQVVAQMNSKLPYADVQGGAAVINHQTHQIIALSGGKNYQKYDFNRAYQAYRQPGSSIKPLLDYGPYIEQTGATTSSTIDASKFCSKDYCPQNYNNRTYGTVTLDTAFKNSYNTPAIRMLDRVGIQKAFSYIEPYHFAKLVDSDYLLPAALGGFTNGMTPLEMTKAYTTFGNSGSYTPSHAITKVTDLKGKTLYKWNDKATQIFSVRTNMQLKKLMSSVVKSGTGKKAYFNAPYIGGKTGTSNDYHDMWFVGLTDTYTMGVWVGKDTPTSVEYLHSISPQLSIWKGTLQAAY
Procedure: To more directly evaluate whether 9314848 is likely to affect PBP4 function, the compound’s ability to bind recombinant PBP4 was measured using BOCILLIN FL fluorescence polarization displacement assays. The premise for the assay is that the fluorescence polarization of the fluorescently labeled β-lactam, penicillin V (BOCILLIN FL), will increase upon binding to its cognate target (i.e., PBP4). Further, compounds that bind PBP4 and inhibit its function would impede BOCILLIN FL binding thereby allowing us to assess the protein binding affinity of 9314848 using a simple fluorescence reduction assay.
To determine whether the assay is amenable to measuring the binding properties of a compound that is known to bind PBP4 vs. a compound that is not expected to bind the protein we performed fluorescence polarization assays in which PBP4 was preincubated with either the β-lactam ampicillin, or the aminoglycoside kanamycin.
(§3) A dose response study was conducted (Figure 4B) in which PBP4 was preincubated with 0, 3.125, 6.25, 12.5, 25, or 50 µM of ampicillin, kanamycin, or 9314848.
First, fluorescence polarization assays were performed as previously described, but with minor modifications. Briefly, the indicated amount of the putative PBP4 inhibitor or control antibiotic was incubated with 1 µM recombinant B. subtilis PBP4 or S. aureus PBP2a in potassium phosphate buffer (40 mM K2HPO4 and 10 mM KH2PO4) for 1 h in black 96-well microtiter plates (Corning Life Sciences, Corning, NY, USA). Following incubation, 1 µM (final concentration) BOCILLIN FL penicillin was added, and the mixture was incubated for 30 min. BOCILLIN FL fluorescence polarization was measured at (495 nm excitation and 545 nm emission) in a SpectraMax M5 multimode plate reader (Molecular Devices, San Jose, CA, USA). […] The resulting data were plotted as percentage BOCILLIN FL binding inhibition = (T/U) × 100; T = FL polarization of ((PBP4+ BOCILLIN FL) − (PBP4+ BOCILLIN FL + inhibitor compound)), U = FL polarization of ((PBP4 + BOCILLIN FL) − (BOCILLIN FL)). Second, gel electrophoresis and fluorescence detection was used to measure BOCILLIN FL labeling of PBP4 treated with the known PBP4 inhibitor cefoxitin (positive control), kanamycin (negative control) or 9314848 (test compound), as previously described but with minor modifications. Briefly, 1 µM of recombinant PBP4 was mixed with 0, 50, 500, 2000, or 5000 µM 9314848 or control antibiotic in 50 mM phosphate buffer (pH 7.4) and incubated at 37 °C for 30 min. Next 40 μM of BOCILLIN FL was added to the reaction mixture and incubated for an additional 30 min at 37 °C. Reactions were stopped by adding 5× SDS-PAGE gel loading dye, heated at 100 °C for 3 min and separated by electrophoresis in 12% SDS-PAGE (2 h, 120 Volts). BOCILLIN FL labeled PBP4 was imaged at λ = 365 nm using a BioRad Gel Doc EZ Imaging system and the gel was then subsequently stained with Bio-safe Coomassie Brilliant Blue stain (BioRad, Hercules, CA, USA) to measure the amount of protein present in each reaction condition and analyzed using NIH-ImageJ software. The percent BOCILLIN FL binding was calculated by first normalizing the protein present in each reaction condition to that of untreated control and subsequently applying each reaction’s protein normalization factor to each reaction’s fluorescent signal. The percentage BOCILLIN FL binding inhibition was then calculated as the normalized band intensity of antibiotic/compound treated sample as compared to the control sample (PBP4 + BOCILLIN FL in the absence of compound).

S. aureus PBP2a = S. aureus PBP2a (Staphylococcus aureus, UniProt P07944); assay: BOCILLIN FL fluorescence polarization assay, PBP2A; type: binding; conditions: 50 µM compound; read-out: Inhibition of BOCILLIN FL labeling of PBP2A
S. aureus PBP2a, sequence (P07944 whole entry): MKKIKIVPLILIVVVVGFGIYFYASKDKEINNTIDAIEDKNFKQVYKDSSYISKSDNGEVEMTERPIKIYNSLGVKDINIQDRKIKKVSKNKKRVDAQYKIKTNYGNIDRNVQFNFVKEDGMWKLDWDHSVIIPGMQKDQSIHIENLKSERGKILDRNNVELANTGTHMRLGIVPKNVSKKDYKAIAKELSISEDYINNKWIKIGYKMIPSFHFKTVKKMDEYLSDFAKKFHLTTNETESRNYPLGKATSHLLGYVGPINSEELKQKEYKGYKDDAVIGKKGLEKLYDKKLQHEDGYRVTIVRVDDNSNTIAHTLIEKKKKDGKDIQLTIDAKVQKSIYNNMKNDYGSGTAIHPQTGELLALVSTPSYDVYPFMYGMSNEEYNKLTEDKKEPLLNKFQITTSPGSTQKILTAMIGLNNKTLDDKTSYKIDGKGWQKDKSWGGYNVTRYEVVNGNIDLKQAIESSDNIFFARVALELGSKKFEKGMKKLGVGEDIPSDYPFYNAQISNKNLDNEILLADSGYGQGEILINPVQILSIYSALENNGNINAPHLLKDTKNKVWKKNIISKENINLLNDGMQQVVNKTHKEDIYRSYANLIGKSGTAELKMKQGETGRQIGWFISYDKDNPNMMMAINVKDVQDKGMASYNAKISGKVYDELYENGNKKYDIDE
Procedure: as §3
First, fluorescence polarization assays were performed as previously described, but with minor modifications. Briefly, the indicated amount of the putative PBP4 inhibitor or control antibiotic was incubated with 1 µM recombinant B. subtilis PBP4 or S. aureus PBP2a in potassium phosphate buffer (40 mM K2HPO4 and 10 mM KH2PO4) for 1 h in black 96-well microtiter plates (Corning Life Sciences, Corning, NY, USA). Following incubation, 1 µM (final concentration) BOCILLIN FL penicillin was added, and the mixture was incubated for 30 min. BOCILLIN FL fluorescence polarization was measured at (495 nm excitation and 545 nm emission) in a SpectraMax M5 multimode plate reader (Molecular Devices, San Jose, CA, USA). […] Second, gel electrophoresis and fluorescence detection was used to measure BOCILLIN FL labeling of PBP4 treated with the known PBP4 inhibitor cefoxitin (positive control), kanamycin (negative control) or 9314848 (test compound), as previously described but with minor modifications. […] The percentage BOCILLIN FL binding inhibition was then calculated as the normalized band intensity of antibiotic/compound treated sample as compared to the control sample (PBP4 + BOCILLIN FL in the absence of compound).

## CC1CCN(C(=O)c2cccc(NC(=O)Nc3ccc(Cl)cc3)c2)CC1 [Compound 9314848]
[1]; Staphylococcus aureus, read-out: CRB∆pbp4 Alone Cmpd (putative PBP4 inhibitor MIC alone)
  MIC: 400 µM
[1]; strain CRB∆pbp4, ceftobiprole combined with the indicated putative PBP4 inhibitor
  CRB∆pbp4 Combination BPR (ceftobiprole MIC in combination): 0.125 µg/mL
[1]; strain CRB∆pbp4, compound combined with ceftobiprole
  CRB∆pbp4 Combination Cmpd (compound concentration in combination): 25 µM
[1]; strain CRB∆pbp4, in combination with the indicated putative PBP4 inhibitor
  CRB∆pbp4 Fold-decrease in ceftobiprole resistance in combination: 2 fold
[2]
  pbp4 expression (mRNA titer, qRT-PCR): did not seem to affect pbp4 expression; also recorded: did not significantly impact pbp4 transcription
[3]
  pbp4 expression (mRNA titer, qRT-PCR): did not seem to affect pbp4 expression; also recorded: did not significantly impact pbp4 transcription
[4]; 3.125 µM and 6.25 µM
  Binding to PBP4 at low concentration: Minimal binding
[4]; 50 µM compound, fluorescence polarization
  Reduction of BOCILLIN FL binding to PBP4: ~ 66%
[4]; 50 µM, 1 µM PBP4
  Effect of preincubation on BOCILLIN FL binding to PBP4 (fluorescence polarization): limited fluorescence polarization
[4]; fluorescence polarization dose response 0-50 µM, read-out: IC50, PBP4 BOCILLIN FL binding inhibition
  IC50: 13.4 µM
S. aureus PBP2a
  inhibition at 50 µM: 25.8 ± 11.4%
